According to ChEMBL document CHEMBL4725469, “Hydrogen Peroxide Inducible JAK3 Covalent Inhibitor: Prodrug for the Treatment of RA with Enhanced Safety Profile” (ACS Med Chem Lett, 2020):
Calls of active or inactive are those of the source. The rule behind the calls is not given here.

Assays:
[1] = Drug level in ankle joint of collagen/complete freund's adjuvant-induced rheumatoid arthritis DBA/1J mouse model at 20 mg/kg, ip by LC-MS/MS analysis; assay type: ADME, organism-based; conditions: in vivo, read-out: Ct
Mus musculus [2] = experiment: In vivo inhibition of JAK3 in collagen/complete freund's adjuvant-induced rheumatoid arthritis DBA/1J mouse model assessed as effect on STAT5 phosphorylation in spleen at 20 mg/kg, ip administered for 14 days by Western blot analysis; assay type: functional, organism-based; conditions: time 14.0 day
Mus musculus [3] = experiment: Antiarthritic activity in DBA/1J mouse model assessed as effect on collagen/complete freund's adjuvant-induced eroded synovial cells in ankle joints at 20 mg/kg, ip administered for 14 days by H and E staining analysis; assay type: functional, organism-based; conditions: time 14.0 day
[4] = Aqueous solubility of compound at pH 7.4; assay type: physicochemical; conditions: buffer
[5] = Permeability of compound at pH 7.4 by PAMPA assay; assay type: ADME; conditions: read-out: permeability
[6] = Stability in simulated intestinal fluid incubated for 0.25 to 24 hrs by RP-UPLC-UV analysis
[7] = Toxicity in ICR mouse assessed as effect on body weight at 100 mg/kg, ip administered for 14 days; assay type: organism-based; conditions: in vivo, 336 h, time 14 day
[8] = MRT (0 to infinity) in Sprague-Dawley rat at 20 mg/kg, ip measured for 0.8 to 24 hrs by LC-MS/MS analysis; assay type: ADME, organism-based; conditions: in vivo, time 0.8-24 hrs
Mus musculus [9] = experiment: Antiarthritic activity in DBA/1J mouse model assessed as effect on collagen/complete freund's adjuvant-induced synovial hyperplasia at 20 mg/kg, ip administered for 14 days by H and E staining analysis; assay type: functional, organism-based; conditions: time 14.0 day
[10] = Prodrug activation in DMSO assessed as H2O2 mediated prodrug release after 4 hrs in presence of 0.1 uM H2O2 after 4 hrs by RP-HPLC-UV analysis
[11] = Tmax in Sprague-Dawley rat at 20 mg/kg, ip measured for 0.8 to 24 hrs by LC-MS/MS analysis; assay type: ADME, organism-based; conditions: in vivo, time 0.8-24 hrs
[12] = Apparent clearance in Sprague-Dawley rat at 20 mg/kg, ip measured for 0.8 to 24 hrs by LC-MS/MS analysis; assay type: ADME, organism-based; conditions: in vivo, time 0.8-24 hrs
[13] = Half life in Sprague-Dawley rat at 20 mg/kg, ip measured for 0.8 to 24 hrs by LC-MS/MS analysis; assay type: ADME, organism-based; conditions: in vivo, time 0.8-24 hrs
[14] = Cmax in Sprague-Dawley rat at 20 mg/kg, ip measured for 0.8 to 24 hrs by LC-MS/MS analysis; assay type: ADME, organism-based; set-up: route intraperitoneal, dose 20 mg/kg, time 0.8-24; conditions: in vivo
Mus musculus [15] = experiment: Antiarthritic activity in ip dosed collagen/complete freund's adjuvant-induced rheumatoid arthritis DBA/1J mouse model assessed as inhibition of feet swelling administered for 14 days by H and E staining based analysis; assay type: functional, organism-based; conditions: dose mg/kg 5-20, time 14.0 day
Mus musculus [16] = experiment: In vivo inhibition of JAK3 in collagen/complete freund's adjuvant-induced rheumatoid arthritis DBA/1J mouse model assessed as effect on STAT5 phosphorylation in heart at 20 mg/kg, ip administered for 14 days by Western blot analysis; assay type: functional, organism-based; conditions: time 14.0 day
[17] = Stability in simulated gastric fluid measured after 0.25 to 24 hrs by RP-UPLC-UV analysis
[18] = Toxicity in ICR mouse assessed as increase in liver weight at 100 mg/kg, ip administered for 14 days; assay type: organism-based; conditions: in vivo, 336 h, time 14 day
[19] = Stability in human plasma at 20 uM after 0.25 to 24 hrs by RP-UPLC-UV analysis; assay type: ADME, cell-free; conditions: time 0.25-24 hrs, read-out: Stabilty
[20] = Stability in phosphate buffer saline at pH 7.4 after 0.25 to 24 hrs by RP-UPLC-UV analysis; assay type: physicochemical; conditions: time 0.25-24 hrs
Mus musculus [21] = experiment: Antiarthritic activity in collagen/complete freund's adjuvant-induced rheumatoid arthritis DBA/1J mouse model assessed as inhibition of feet swelling at 20 mg/kg, ip administered for 14 days by H and E staining based analysis; assay type: functional, organism-based; conditions: time 14.0 day
[22] = Apparent volume of distribution in Sprague-Dawley rat at 20 mg/kg, ip measured for 0.8 to 24 hrs by LC-MS/MS analysis; assay type: ADME, organism-based; conditions: in vivo, time 0.8-24 hrs
Mus musculus [23] = experiment: In vivo inhibition of JAK3 in collagen/complete freund's adjuvant-induced rheumatoid arthritis DBA/1J mouse model assessed as effect on STAT5 phosphorylation in lung at 20 mg/kg, ip administered for 14 days by Western blot analysis; assay type: functional, organism-based; conditions: time 14.0 day
Mus musculus [24] = experiment: In vivo inhibition of JAK3 in collagen/complete freund's adjuvant-induced rheumatoid arthritis DBA/1J mouse model assessed as effect on STAT5 phosphorylation in kidney at 20 mg/kg, ip administered for 14 days by Western blot analysis; assay type: functional, organism-based; conditions: time 14.0 day
[25] = Dissociation constant, pKa of the compound; assay type: physicochemical
[26] = biological target: T1, Tyrosine-protein kinase JAK3 (Mus musculus) (UniProt Q62137); experiment: Inhibition of JAK3 in mouse BaF3/TEL-JAK3 cells assessed as effect on STAT5 phosphorylation at 0.125 to 2 uM by Western blot analysis; assay type: cell-based; conditions: dose microM 0.125-2
T1 sequence (whole entry): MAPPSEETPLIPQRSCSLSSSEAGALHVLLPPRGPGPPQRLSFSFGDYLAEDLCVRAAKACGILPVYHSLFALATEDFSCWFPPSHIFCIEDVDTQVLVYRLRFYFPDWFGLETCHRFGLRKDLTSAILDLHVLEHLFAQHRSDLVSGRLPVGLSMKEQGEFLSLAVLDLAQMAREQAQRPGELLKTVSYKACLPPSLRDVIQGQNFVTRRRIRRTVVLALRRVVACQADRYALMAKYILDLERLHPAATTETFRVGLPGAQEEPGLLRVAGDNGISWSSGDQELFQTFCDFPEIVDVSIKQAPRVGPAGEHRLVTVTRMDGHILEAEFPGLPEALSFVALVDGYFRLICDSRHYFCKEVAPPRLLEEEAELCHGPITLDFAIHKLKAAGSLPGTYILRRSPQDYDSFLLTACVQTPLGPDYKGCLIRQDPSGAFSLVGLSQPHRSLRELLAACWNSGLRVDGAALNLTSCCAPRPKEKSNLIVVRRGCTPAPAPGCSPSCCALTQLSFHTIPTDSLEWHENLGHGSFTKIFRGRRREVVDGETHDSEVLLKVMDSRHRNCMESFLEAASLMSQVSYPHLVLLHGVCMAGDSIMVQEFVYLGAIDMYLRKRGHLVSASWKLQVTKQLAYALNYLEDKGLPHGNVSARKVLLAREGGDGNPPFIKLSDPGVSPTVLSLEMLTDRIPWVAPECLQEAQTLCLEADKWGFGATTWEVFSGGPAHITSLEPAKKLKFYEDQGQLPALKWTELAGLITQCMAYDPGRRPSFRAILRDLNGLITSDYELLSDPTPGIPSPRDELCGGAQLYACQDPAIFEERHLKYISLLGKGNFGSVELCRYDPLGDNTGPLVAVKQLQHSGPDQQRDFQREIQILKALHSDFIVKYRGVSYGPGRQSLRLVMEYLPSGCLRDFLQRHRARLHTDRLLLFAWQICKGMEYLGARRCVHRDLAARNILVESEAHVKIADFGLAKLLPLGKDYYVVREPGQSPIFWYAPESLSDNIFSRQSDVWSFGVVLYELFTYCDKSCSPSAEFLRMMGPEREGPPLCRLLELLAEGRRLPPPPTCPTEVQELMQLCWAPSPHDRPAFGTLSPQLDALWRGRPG

[27] = Toxicity in ICR mouse assessed as increase in spleen weight at 100 mg/kg, ip administered for 14 days; assay type: organism-based; conditions: in vivo, 336 h, time 14 day
[28] = Stability in mouse plasma at 20 uM after 0.25 to 24 hrs by RP-UPLC-UV analysis; assay type: ADME, cell-free; conditions: time 0.25-24 hrs, read-out: Stabilty
Mus musculus [29] = experiment: Antiarthritic activity in ip dosed collagen/complete freund's adjuvant-induced rheumatoid arthritis DBA/1J mouse model assessed as reduction in G-CSF level in serum administered for 14 days by ELISA; assay type: functional, organism-based; conditions: dose mg/kg 5-20, time 14.0 day
Mus musculus [30] = experiment: Antiarthritic activity in DBA/1J mouse model assessed as effect on collagen/complete freund's adjuvant-induced disordered synovial cells in ankle joints at 20 mg/kg, ip administered for 14 days by H and E staining analysis; assay type: functional, organism-based; conditions: time 14.0 day
[31] = Prodrug activation in collagen/complete freund's adjuvant-induced rheumatoid arthritis DBA/1J mouse model assessed as Z)-2-((5-(1-cyclohexyl-1,6-dihydroimidazo[4,5-d]pyrrolo[2,3-b]pyridin-2-yl)furan-2-yl)(hydroxy)methyl)-3-(dimethylamino)-3-((4-(4,4,5,5-tetramethyl-1,3,2-dioxaborolan-2-yl)benzyl)oxy)acrylonitrile level in ankle joint at […], ip by LC-MS/MS analysis; assay type: organism-based; conditions: in vivo, 20 mg/kg, read-out: Ct
[32] = biological target: T1, Tyrosine-protein kinase JAK3 (Mus musculus); experiment: Inhibition of JAK3 in mouse BaF3/TEL-JAK3 cells assessed as effect on STAT3 phosphorylation at 0.125 to 2 uM by Western blot analysis; assay type: cell-based; conditions: dose microM 0.125-2
Mus musculus [33] = experiment: Antiarthritic activity in ip dosed collagen/complete freund's adjuvant-induced rheumatoid arthritis DBA/1J mouse model assessed as reduction in IL-2 level in serum administered for 14 days by ELISA; assay type: functional, organism-based; conditions: dose mg/kg 5-20, time 14.0 day
Mus musculus [34] = experiment: Antiarthritic activity in ip dosed collagen/complete freund's adjuvant-induced rheumatoid arthritis DBA/1J mouse model assessed as reduction in serum amyloid A level administered for 14 days by ELISA; assay type: functional, organism-based; conditions: dose mg/kg 5-20, time 14.0 day
Mus musculus [35] = experiment: In vivo inhibition of JAK3 in collagen/complete freund's adjuvant-induced rheumatoid arthritis DBA/1J mouse model assessed as effect on STAT5 phosphorylation in liver at 20 mg/kg, ip administered for 14 days by Western blot analysis; assay type: functional, organism-based; conditions: time 14.0 day
[36] = AUC in Sprague-Dawley rat at 20 mg/kg, ip measured for 0.8 to 24 hrs by LC-MS/MS analysis; assay type: ADME, organism-based; set-up: route intraperitoneal, dose 20 mg/kg, time 0.8-24; conditions: in vivo
[37] = Toxicity in ICR mouse assessed as inflammatory inflammation in heart at 100 mg/kg, ip administered for 14 days; assay type: organism-based; conditions: in vivo, 336 h, time 14 day
[38] = Toxicity in ICR mouse assessed as inflammatory inflammation in lungs at 100 mg/kg, ip administered for 14 days; assay type: organism-based; conditions: in vivo, 336 h, time 14 day
Mus musculus [39] = experiment: Antiarthritic activity in collagen/complete freund's adjuvant-induced rheumatoid arthritis DBA/1J mouse model assessed as inhibition of feet swelling at 10 mg/kg, ip administered for 14 days by H and E staining based analysis; assay type: functional, organism-based; conditions: time 14.0 day

SMILES	concentration [1] [nM]	solubility [4] [mg/kg]	Papp [5] [×10⁻⁶ cm/s]	Activity [7]	MRT inf [8] [h]	Tmax [11] [h]	CL(app) [12] [mL/min/kg]	t1/2 [13] [h]	Cmax [14] [ng/mL]	Activity [18]	Vz [22] [L/kg]	pKa [25]	inhibition [26]	Activity [27]	inhibition [32]	AUC [36] [µg·h/mL]	other results
CN(C)/C(OCc1ccc(B2OC(C)(C)C(C)(C)O2)cc1)=C(\C#N)C(O)c1ccc(-c2nc3cnc4[nH]ccc4c3n2C2CCCCC2)o1 (stereo not given)	290	0.011	56.4	Non-Toxic	2.38	0.25	35	2.92	983.33	Non-Toxic	8.7	10.7	Active	Non-Toxic	Active	963.5	inhibition (Mus musculus [2]): inactive; Activity (Mus musculus [3]): Active; Stability [6]: > 95%; Activity (Mus musculus [9]): Active; Drug metabolism [10]: Not Active; inhibition (Mus musculus [15]): Dose-dependent effect; inhibition (Mus musculus [16]): inactive; Stability [17]: > 95%; remaining at 20 µM [19]: > 95%; Stabilty [20]: > 95%; inhibition (Mus musculus [21]): Active; inhibition (Mus musculus [23]): inactive; inhibition (Mus musculus [24]): inactive; remaining at 20 µM [28]: > 95%; Activity (Mus musculus [29]): Active; Activity (Mus musculus [30]): Active; concentration [31]: 1130 nM; Activity (Mus musculus [33]): Active; Activity (Mus musculus [34]): Active; inhibition (Mus musculus [35]): inactive
CN(C)C(=O)/C(C#N)=C/c1ccc(-c2nc3cnc4[nH]ccc4c3n2C2CCCCC2)o1	1070	0.719	14.7	Toxic	3.84	0.17	100	2.36	455.37	Toxic	27.96	10.1	Active	Toxic	Active	331.91	Activity [37]: Toxic; Activity [38]: Toxic; inhibition (Mus musculus [39]): Active
